14 compounds from the NIST ThermoML archive (doi:10.1021/acs.jced.8b00725) can be followed below.

Numbers after ± are expanded uncertainties.

The conditions of this data set: 100 kPa, Liquid, Vibrating tube method.

By mass density is commonly meant mass per unit of volume. In the case of `CC[NH+](CC)CC.CS(=O)(=O)[O-]` [triethylammonium methanesulfonate], the mass density is, setting by setting: (293.15 K) 1120.47 ± 8.8 kg/m3; (298.15 K) 1117.11 ± 8.7 kg/m3; (303.15 K) 1113.77 ± 8.7 kg/m3; (308.15 K) 1110.44 ± 8.6 kg/m3; (313.15 K) 1107.13 ± 8.6 kg/m3; (318.15 K) 1103.83 ± 8.5 kg/m3. In addition, the mass density reads like this: (323.15 K) 1100.54 ± 8.5 kg/m3; (328.15 K) 1097.26 ± 8.4 kg/m3; (333.15 K) 1093.99 ± 8.4 kg/m3; (338.15 K) 1090.72 ± 8.3 kg/m3; (343.15 K) 1087.47 ± 8.3 kg/m3; (348.15 K) 1084.22 ± 8.2 kg/m3. Besides, the mass density (353.15 K) is 1080.98 ± 8.2 kg/m3.
On to `CCN(CC)CC.O=C(O)c1ccccc1O` [triethylammonium salicylate], for which the mass density was found to be 1099.07 ± 8.5 kg/m3 (293.15 K); 1095.79 ± 8.4 kg/m3 (298.15 K); 1092.57 ± 8.3 kg/m3 (303.15 K); 1089.33 ± 8.3 kg/m3 (308.15 K); 1086.08 ± 8.2 kg/m3 (313.15 K); 1082.83 ± 8.2 kg/m3 (318.15 K). Moreover, the mass density (323.15 K) is given as 1079.58 ± 8.2 kg/m3; the mass density (328.15 K) is recorded as 1076.35 ± 8.1 kg/m3; the mass density (333.15 K) is reported as 1073.13 ± 8.1 kg/m3; the mass density (338.15 K) was 1069.93 ± 8 kg/m3; the mass density (343.15 K) was determined as 1066.73 ± 8 kg/m3; the mass density (348.15 K) is listed as 1063.54 ± 7.9 kg/m3. Moreover, the mass density (353.15 K) turned out to be 1060.36 ± 7.9 kg/m3.
For the compound `CC[NH+](CC)CC.O=S(=O)([O-])C(F)(F)F` [triethylammonium trifluoromethanesulfonate], the mass density runs as follows: (293.15 K) 1268.63 ± 11 kg/m3; (298.15 K) 1264.56 ± 11 kg/m3; (303.15 K) 1260.51 ± 11 kg/m3; (308.15 K) 1256.47 ± 11 kg/m3; (313.15 K) 1252.45 ± 11 kg/m3; (318.15 K) 1248.45 ± 11 kg/m3. Further, the mass density (323.15 K) was 1244.46 ± 11 kg/m3; the mass density (328.15 K) was found to be 1240.48 ± 11 kg/m3; the mass density (333.15 K) is 1236.53 ± 11 kg/m3; the mass density (338.15 K) is 1232.58 ± 11 kg/m3; the mass density (343.15 K) stood at 1228.65 ± 11 kg/m3; the mass density (348.15 K) came out at 1224.73 ± 11 kg/m3. For the setting “353.15 K”, the mass density came out at 1220.84 ± 10 kg/m3.
For the compound `CC[NH2+]CC.O=S(=O)([O-])O` [diethylammonium hydrogen sulfate], the mass density is, setting by setting: (293.15 K) 1382.76 ± 13 kg/m3; (298.15 K) 1379.53 ± 13 kg/m3; (303.15 K) 1376.33 ± 13 kg/m3; (308.15 K) 1373.15 ± 13 kg/m3; (313.15 K) 1369.99 ± 13 kg/m3; (318.15 K) 1366.85 ± 13 kg/m3. Further, the mass density is, setting by setting: (323.15 K) 1363.73 ± 13 kg/m3; (328.15 K) 1360.62 ± 13 kg/m3; (333.15 K) 1357.53 ± 13 kg/m3; (338.15 K) 1354.45 ± 13 kg/m3; (343.15 K) 1351.38 ± 13 kg/m3; (348.15 K) 1348.31 ± 13 kg/m3. The mass density (353.15 K) was 1345.25 ± 13 kg/m3.
Regarding `CC[NH2+]CC.O=C([O-])C(F)(F)F` [diethylammonium trifluoroacetate], the mass density reads like this: (323.15 K) 1158.82 ± 9.4 kg/m3; (328.15 K) 1154.74 ± 9.3 kg/m3; (333.15 K) 1150.69 ± 9.3 kg/m3; (338.15 K) 1146.65 ± 9.2 kg/m3; (343.15 K) 1142.62 ± 9.2 kg/m3; (348.15 K) 1138.55 ± 9.1 kg/m3. Besides, where the note is “353.15 K”, the mass density came out at 1134.5 ± 9 kg/m3.
Consider `CCN(CC)CC.O=P(O)(O)O` [triethylammonium dihydrogen phosphate], for which the mass density is, setting by setting: (338.15 K) 1329.48 ± 12 kg/m3; (343.15 K) 1327.08 ± 12 kg/m3; (348.15 K) 1324.69 ± 12 kg/m3; (353.15 K) 1322.31 ± 12 kg/m3.
Turning to `CCC(=O)[O-].OCC[NH+](CCO)CCO` [triethanolammonium propanoate], the mass density reads like this: (293.15 K) 1139.53 ± 7 kg/m3; (298.15 K) 1136.51 ± 7 kg/m3; (303.15 K) 1133.47 ± 7 kg/m3; (308.15 K) 1130.43 ± 6.9 kg/m3; (313.15 K) 1127.31 ± 6.9 kg/m3; (318.15 K) 1124.25 ± 6.9 kg/m3. The mass density (323.15 K) is listed as 1121.15 ± 6.8 kg/m3; the mass density (328.15 K) is 1118.01 ± 6.8 kg/m3; the mass density (333.15 K) is reported as 1114.84 ± 6.7 kg/m3; the mass density (338.15 K) turned out to be 1111.68 ± 6.7 kg/m3; the mass density (343.15 K) worked out at 1108.5 ± 6.7 kg/m3; the mass density (348.15 K) worked out at 1105.29 ± 6.6 kg/m3. In addition, the mass density (353.15 K) is given as 1102.06 ± 6.6 kg/m3.
Consider `CC[NH+](CC)CC.O=C([O-])c1ccccc1` [triethylammonium benzoate], for which the mass density is listed as 1101.47 ± 8.5 kg/m3 (293.15 K); 1098.02 ± 8.4 kg/m3 (298.15 K); 1094.65 ± 8.4 kg/m3 (303.15 K); 1091.27 ± 8.3 kg/m3 (308.15 K); 1087.87 ± 8.3 kg/m3 (313.15 K); 1084.47 ± 8.2 kg/m3 (318.15 K). The mass density is, setting by setting: (323.15 K) 1081.07 ± 8.2 kg/m3; (328.15 K) 1077.68 ± 8.1 kg/m3; (333.15 K) 1074.3 ± 8.1 kg/m3; (338.15 K) 1070.92 ± 8 kg/m3; (343.15 K) 1067.55 ± 8 kg/m3; (348.15 K) 1064.18 ± 7.9 kg/m3. Further, the mass density (353.15 K) is 1060.82 ± 7.9 kg/m3.
Consider `O=C(O)c1ccccc1O.OCCN(CCO)CCO` [triethanolammonium salicylate], for which the mass density is listed as 1248.43 ± 11 kg/m3 (328.15 K); 1245.42 ± 11 kg/m3 (333.15 K); 1242.4 ± 11 kg/m3 (338.15 K); 1239.42 ± 11 kg/m3 (343.15 K); 1236.44 ± 11 kg/m3 (348.15 K); 1233.42 ± 11 kg/m3 (353.15 K).
With `CC[NH+](C)C.O=C([O-])C(F)(F)F` [N,N-dimethyl-N-ethylammonium trifluoroacetate], the mass density is, setting by setting: (293.15 K) 1212.41 ± 10 kg/m3; (298.15 K) 1208.11 ± 10 kg/m3; (303.15 K) 1203.82 ± 10 kg/m3; (308.15 K) 1199.56 ± 10 kg/m3; (313.15 K) 1195.28 ± 10 kg/m3; (318.15 K) 1191.03 ± 10 kg/m3. The mass density runs as follows: (323.15 K) 1186.78 ± 9.9 kg/m3; (328.15 K) 1182.54 ± 9.8 kg/m3; (333.15 K) 1178.33 ± 9.8 kg/m3; (338.15 K) 1174.09 ± 9.7 kg/m3; (343.15 K) 1169.9 ± 9.6 kg/m3; (348.15 K) 1165.69 ± 9.5 kg/m3. Further, for the setting “353.15 K”, the mass density stood at 1161.51 ± 9.5 kg/m3.
As for `O=S(=O)(O)O.OCCN(CCO)CCO` [triethanolammonium hydrogen sulfate], the mass density reads like this: (323.15 K) 1421.3 ± 14 kg/m3; (328.15 K) 1418.8 ± 14 kg/m3; (333.15 K) 1416.33 ± 14 kg/m3; (338.15 K) 1413.85 ± 14 kg/m3; (343.15 K) 1411.31 ± 14 kg/m3; (348.15 K) 1408.87 ± 14 kg/m3. Also, the mass density (353.15 K) is reported as 1406.37 ± 14 kg/m3.
With `CC[NH+](CC)CC.O=C([O-])C(F)(F)F` [triethylammonium trifluoroacetate], the mass density reads like this: (293.15 K) 1165.69 ± 9.5 kg/m3; (298.15 K) 1161.57 ± 9.5 kg/m3; (303.15 K) 1157.44 ± 9.4 kg/m3; (308.15 K) 1153.32 ± 9.3 kg/m3; (313.15 K) 1149.21 ± 9.3 kg/m3; (318.15 K) 1145.1 ± 9.2 kg/m3. In addition, the mass density (323.15 K) amounted to 1141 ± 9.1 kg/m3; the mass density (328.15 K) came to 1136.91 ± 9.1 kg/m3; the mass density (333.15 K) is reported as 1132.82 ± 9 kg/m3; the mass density (338.15 K) is given as 1128.74 ± 8.9 kg/m3; the mass density (343.15 K) was determined as 1124.67 ± 8.9 kg/m3; the mass density (348.15 K) is 1120.6 ± 8.8 kg/m3. In addition, under “353.15 K”, the mass density was 1116.54 ± 8.7 kg/m3.
For the compound `CC[NH2+]CC.CS(=O)(=O)[O-]` [diethylammonium methanesulfonate], the mass density (333.15 K) is on record as 1117.5 ± 8.8 kg/m3; the mass density (338.15 K) is 1114.27 ± 8.7 kg/m3; the mass density (343.15 K) was 1111.06 ± 8.7 kg/m3; the mass density (348.15 K) is listed as 1107.86 ± 8.6 kg/m3; the mass density (353.15 K) is given as 1104.68 ± 8.5 kg/m3.
On to `CC(=O)O.CCN(CC)CC` [triethylammonium acetate], for which the mass density runs as follows: (293.15 K) 1013.29 ± 7.2 kg/m3; (298.15 K) 1009.63 ± 7.1 kg/m3; (303.15 K) 1005.87 ± 7 kg/m3; (308.15 K) 1002.1 ± 7 kg/m3; (313.15 K) 998.33 ± 6.9 kg/m3; (318.15 K) 994.55 ± 6.9 kg/m3. The mass density was determined as 990.75 ± 6.8 kg/m3 (323.15 K); 986.96 ± 6.8 kg/m3 (328.15 K); 983.14 ± 6.7 kg/m3 (333.15 K); 979.32 ± 6.7 kg/m3 (338.15 K); 975.48 ± 6.6 kg/m3 (343.15 K); 971.62 ± 6.6 kg/m3 (348.15 K). Besides, the mass density (353.15 K) was determined as 967.74 ± 6.5 kg/m3.
